Measurements taken from patent publication US8372455B2, “Cosmetic composition with anti-free radical activity” (LVMH Recherche, priority 2006, dated 2013).

system: human keratinocytes (HaCaT); experiment: Antioxidizing power (free radical scavenging) in H2O2-treated keratinocytes with the DCFH-DA fluorescent probe; format: cell-based; details: 24 h treatment, 0.05 mg/ml ebselen, extract of Emblica, extract of Edelweiss, 0.1 μg/ml tocotrienol, idebenone, N-acetylcysteine, N=6, FIG. 1
Excerpt: To do this, the inventors used an in vitro test on a model of human keratinocytes, which consisted in the in situ generation of free radicals in the presence and absence of substances with anti-free radical activity, and then in quantification, with the aid of a fluorescent probe of the type dichlorofluorescein diacetate (DCFH-DA), of the free radicals still present in the cells. This probe is well known to those skilled in the art and its use makes it possible to measure the amount of free radicals present as a function of the fluorescence signal emitted.
The antioxidizing power according to the invention, which corresponds in practice to the free radical scavenging power of each substance with anti-free radical activity or an association of such substances, is obtained using the following formula (A): antioxidizing power=([…])×100 (A) in which: Δ control=difference in fluorescence values between the control not treated with an active substance or an association of such substances, and the control treated with the reference oxidizing agent hydrogen peroxide (H2O2); Δ test=difference in fluorescence values between the control treated with an active substance or an association of active substances, and the control treated with H2O2.
In practice, the value of Δ control represents the situation where the oxidation is greatest. This value is to be considered as that of 100% oxidation. It is then possible, by taking the ratio ([…])×100, to determine the percentage oxidation in the presence of an active substance or an association of such active substances. The antioxidizing power can then be calculated as the difference from the maximum value of 100, corresponding to application of the above formula. […]
The fluorescence emitted is then directly proportional to the concentration of free radicals that has reacted in the medium.
Thus, in the presence of a substance with anti-free radical activity, the DCFH present in the medium encounters fewer free radicals and the value of the fluorescence signal emitted decreases as a consequence. […]

Compound | protective power (antioxidizing power) of individual substances with anti-free radical activity
CC(=O)N[C@@H](CS)C(=O)O [N-acetylcysteine] | weakly protective
COC1=C(OC)C(=O)C(CCCCCCCCCCO)=C(C)C1=O [idebenone, 2,3-dimethoxy-6-(10-hydroxydecyl)-5-methyl-1,4-benzo-quinone] | weakly protective
alpha-tocotrienol | relatively high protective power
